# Test results from PMC3637054, “Comparison of activity indexes for recognizing enzyme mutants of higher activity with uricase as model” (Chemistry Central Journal, 2013).
# Test system: T1, uricase of Asahi-Kasei
# T1 construct: gene urate oxidase; commercial diagnostic enzyme of Asahi-Kasei
# Assay: UV absorbance at […] nm, initial rates, Lineweaver-Burk
# Assay type: biochemical
# Conditions: borate buffer, 25 °C
smiles,measurement,value
O=c1[nH]c(=O)c2[nH]c(=O)[nH]c2[nH]1 [uric acid],Km,~30 µM
